Where two headings read alike, the source gives them in different places.
Columns and labels:
[1] = test system: K562 cells (chronic myelogenous leukemia); assay: MTT cytotoxicity test on suspension K562 cells; format: cell-based, human; details: for fold decrease of IC50 after 48 h compared to IC50 after 24h: K562 cells; for cytotoxicity, times greater in relation to the salt Fh3P^+C5H11 I^-: K562 cells after 48 h
Experimental: (§1) Compound 1, where R = ethyl, X = I (formula 1a) and the compound 1 where R = n-octyl, and X = I (formula 1b, were tested for cytotoxic properties on two representatives of human tumor cells: adherent HeLa cells (cervical carcinoma) and suspension K562 cells (chronic myelogenous leukemia). The cytotoxicity of the test compounds was determined with the MTT test in which the yellow tetrazolium salt is reduced by dehydrogenase in the mitochondria of living cells into a purple formazan. 1.HeLa or K562 cells were seeded in 96-well plates in the amount of seven thousand cells/well in 200 µL of culture medium. Cells were incubated overnight in an incubator (37 °C, 5% CO2) 2. The tested compound was added to the cells to yield the following final concentrations in the cell culture: 1 mM, 10 µM, 100 nM, 1 nM. Cells treated with 1% DMSO served as the control with 100% viability. 3. After 24 h or 48 h incubation of HeLa or K562 cells with test compounds, 25 µL of MTT (5 mg / mL) was added to each well. MTT, a yellow tetrazolium salt is reduced to purple formazan by mitochondrial dehydrogenases of living cells, the quantity of which can be determined spectrophotometrically. Cells were incubated with MTT for two hours in an incubator (37 ° C, 5% CO2). Next, lysis buffer containing SDS and DMF was added (95 µL / well). Cells were lysed overnight at 37 ° C, 5% CO2. 4. The absorbance of each well was read on FLUOstar Omega reader at the wave length of 570 and 650 nm. The absorbance measured at 570 nm is proportional to the number of viable cells. The viability of the cells was calculated for each concentration of the test compound. The IC50 values were read from the dose - viability plots by interpolation to 50% cell survival. 5.The results indicating the strong toxicity of both, compound 1a and compound 1b to the adherent HeLa cells and suspension K562 cells are shown in Tables 1 and 2.
(§2) The compound of formula 1c was tested for cytotoxic properties on two human cell lines using the MTT assay (yellow tetrazolium salt transformed by dehydrogenase in the mitochondria of living cells into the purple formazan). The tests were performed on HeLa (cervical carcinoma) and K562 (chronic myelogenous leukemia) cells.
(§3) (Experimental protocol as in Example I).

[2] = test system: HeLa cells (cervical carcinoma); assay: MTT cytotoxicity test on adherent HeLa cells; format: cell-based, human; details: for IC50: Homo sapiens, HeLa; for cytotoxicity, times greater in relation to the salt Fh3P^+C5H11 I^-: HeLa cells after 48 h
Experimental: as §1, §2, §3

[3] = test system: cervical carcinoma cells (HeLa); details: after 24 h, PL395749; cited from earlier work
K562 and HeLa cells = details: PL395749, cited from earlier work
K562 cells = details: K562, 24 h; PL395749; cited from earlier work
[4] = test system: cervical carcinoma HeLa cells and chronic myelogenous leukemia K562 cells; assay: MTT cytotoxicity, summary ranges over HeLa and K562 cells; format: cell-based; details: Homo sapiens, read-out: IG50 (the source's name)
Experimental: as §1, with “After 24 h or 48 h incubation of HeLa or K562 cells with test compounds, 25 µL of MTT (5 mg / mL) was added to each well.” left out

HeLa cells = details: read-out: cytotoxicity EC50; cited from earlier work
[5] = Homo sapiens, K562, 24 h, read-out: IC50
[6] = Homo sapiens, K562, 48 h, read-out: IC50

Structure (SMILES)	IC50 [1, 5]	IC50 [1, 6]	fold decrease of IC50 after 48 h compared to IC50 after 24h [1]	cytotoxicity, times greater in relation to the salt Fh3P^+C5H11 I^- [1]	IC50 ([4]; after 4 h (so in the source))	IC50 ([4]; after 48 hrs)	cytotoxicity, times greater in relation to the salt Fh3P^+C5H11 I^- [2]	IC50 ([2]; 24h, read-out: IC50)	IC50 ([2]; 48h, read-out: IC50)	further results
BrCc1ccc(-c2ccc(C[P+](c3ccccc3)(c3ccccc3)c3ccccc3)cc2)cc1 [Compound 1c]										IC50 ([1]; Homo sapiens, K562, 48 h, K562, 48 h (Table 2, compound 1c), read-out: IC50 48 h): 6000 nM; IC50 ([1]; K562, 48 h (Table 2, compound 1c), read-out: IC50 48 h): 5000 nM; IC50 ([2]; 48 h (Table 2, compound 1c), read-out: IC50 48 h): 30 µM
CCCCC[P+](c1ccccc1)(c1ccccc1)c1ccccc1 [Compound C5]										IC50 [3]: 90 µM; IC50 (K562 and HeLa cells; after 24 h): 50 to 90 µM; IC50 (K562 and HeLa cells; second value for C5, printed after 24 h): 6 to 60 µM; IC50 (K562 cells): 50 µM
CCCCCCCCCC[P+](c1ccccc1)(c1ccccc1)c1ccccc1.[I-] [Compound 1a, n-decyltriphenylphosphonium iodide]	3000 nM	500 nM	six	12 times	2 to 7 µM	0.5 to 5 µM	12-15 times	7 µM	5 µM	
CCCCCCCCCCCCCC[P+](CCCCCC)(CCCCCC)CCCCCC.O=S(=O)([N-]S(=O)(=O)C(F)(F)F)C(F)(F)F [tri-n-hexyl(tetradecyl)phosphonium bis(trifluoromethylsulfonyl) imide]										EC50 (HeLa cells): 80 µM
CCCCCCCCCCCCCCCC[P+](c1ccccc1)(c1ccccc1)c1ccccc1.[I-] [Compound 1b, triphenyl-n-hexadecylphosphonium iodide]	2000 nM	500 nM	four	12 times	2 to 7 µM	0.5 to 5 µM	12-15 times	5 µM	4 µM	

From patent publication EP3124027A1, “TRIPHENYLPHOSPHONIUM SALTS FOR USE IN CANCER THREAPY” (Centrum Badan Molekularnych I Makromolekularnych Polskiej …, priority 2015, dated 2017)
